Source: article PMC7356587, “Efficacy, Stability, and Safety Evaluation of New Polyphenolic Xanthones Towards Identification of Bioactive Compounds to Fight Skin Photoaging” (Molecules, 2020)
Marks after values point to notes of the source that are not given here.

Legend:
DPPH reduction assay = details: for IC50: DPPH reduction, 60 min incubation
Experimental: The reduction of the stable DPPH free radical was measured by monitoring the change in absorbance at 517 nm. These experiments were made in a 96-well microplate. […] In each experiment, the compounds were tested in the concentration range 0.7812 μM to 50 μM, in triplicate. For each sample concentration, a blank with ethanol 70%, instead of DPPH was made. Ascorbic acid was used as a positive control and tested in the same conditions. Blanks containing only ethanol 70% and control containing DPPH in ethanol 70% (190 μM) were used. The absorbance at 517 nm was measured in a microplate reader BioTek^TM Synergy HT (BioTeck Instruments, Vermont, USA) after 60 min of incubation in the dark with a temperature-controlled holder at 25 °C. The microplate was shaken before each reading.
The scavenging percentage of DPPH was calculated using the following equation:(1) %scavenging of DPPH=100×(1−Abssample+DPPH−Abssample blank/AbsDPPH−AbsEtOH)
The IC50 value for each sample and for the ascorbic acid was obtained by linear regression.

collagenase = assay: Collagenase inhibition assay; assay type: biochemical
Experimental: An adaptation of the method of Moore and Stein [40] with modifications by Mandl et al. was used to determine anticollagenase activity. To 2 mL test tubes was added: 25 μL of collagenase solution (0.8 U/mL), 25 μL TES buffer (50 mM) with 0.36 mM calcium chloride (pH 7.4) and 50 μL of test sample or the reference compound EDTA (with concentrations ranging between 9.4 and 150 μM). The tubes were incubated in a water bath at 37 °C for 20 min. Thereafter, 50 μL FALGPA (1 mM) solution was added to the tubes and incubated further for 60 min at 37 °C. To all tubes, 200 μL of a solution containing equal volumes of a 1.6 mg/mLTin chloride (II) solution in 200 mM citrate buffer (pH 5) and 50 mg/mL ninhydrin solution in DMSO was added. All tubes were placed in a water bath (100 °C) for 5 min and left to cool to room temperature before adding 200 μL of 50% isopropanol to each tube. Contents in the tubes were then transferred to respective wells in 96-well plates.

hyaluronidase = test system: hyaluronidase
Experimental: The methods described by Ndlovu et al. and Zhou et al. were applied for the hyaluronidase inhibition assay. Into 2 mL test tubes was placed: 50 μL of calcium chloride (12.5 mM), 50 μL of test samples or sodium aurothiomalate diluted in 0.1 M acetate buffer; pH 3.5 (with concentrations ranging between 9.4 and 150 μM), and 25 μL hyaluronidase (0.5 mg/mL). The tubes were incubated in a water bath (37 °C; 20 min) after which 50 μL of the substrate hyaluronic acid (0.25 mg/mL in 0.1 M acetate buffer; pH 3.5) was added and the tubes incubated for further 40 min. Twenty-five microliters of KBO2 • 4 H2O (0.8 M) was added to all tubes which were placed in a water bath (100 °C) for 3 min, left to cool to room temperature, and 800 μL of DMAB (4 g DMAB in 40 mL acetic acid and 5 mL 10 N HCl) was added. The tubes were then incubated for 20 min and the contents transferred to respective wells in a 96-well plate. Absorbance was detected at 585 nm in a Bio-Rad Model 680 Microplate Reader (Bio-Rad Laboratories, Inc., Hercules, CA, USA). Percentage of hyaluronidase inhibition was calculated as:(3) % hyaluronidase inhibition =Abscontrol−Abssample/Abscontrol×100 where Abscontrol is the absorbance of buffer + hyaluronidase; Abssample is the absorbance of buffer + hyaluronidase + sample/standard.

[1] = Metal-chelating effect by UV/Vis, FeCl3; assay type: physicochemical; details: methanolic solution
Experimental: (§1) The ultraviolet/visible (UV/Vis) spectra were recorded in methanol using a path length of 1 cm, at room temperature on a Varian CARY100 spectrophotometer (Agilent Technologies, Santa Clara, California, United States) from a range of 200 nm to 500 nm (software CaryWin UV, v. 3.0). The metal-chelating effect was evaluated by described procedures with stock solutions (1.0 × 10^−4 M) in methanol. Iron (III) and copper (II) solutions were prepared in a concentration of 1.0 × 10^−3 M from FeCl3 and CuCl2 in deionized water.

[2] = Metal-chelating effect by UV/Vis, CuCl2; assay type: physicochemical; details: methanolic solution
Experimental: as §1

[3] = UV/Vis absorption spectra; assay type: physicochemical; details: UVB range 280–320 nm
Experimental: as §1

Stability in pH buffers = assay type: physicochemical; details: pH buffers 2-8, 21 days, room temperature, 200 µM
Experimental: All the solutions were prepared following Portuguese Pharmacopeia 9.0 specifications (F.P. (VIII) 2008). A solution at 10 mM in DMSO of each compound was prepared. One hundred microliters of antioxidant solution were diluted to 5 mL of the different buffered pH solutions, prepared in triplicate. Their absorbance measured by UV/Vis spectrophotometry in the wavelength range between 200 and 500 nm at time intervals of 0, 1, and 2 h and 1, 8, 15, and 21 d at room temperature. Each pH buffer solution was used as a compensation solution.

HaCaT cells = assay: Phototoxicity evaluation, HaCaT NRU assay; assay type: cell-based, human
Experimental: The HaCaT cells were maintained at 37 °C in a humidified atmosphere of 95% air and 5% CO2 in the incubator in dulbecco’s modified eagle’s medium (DMEM) with 10% fetal bovine serum (FBS) and 1% antibiotics. Using an inverted microscope, cell confluence was observed and if the cells reached 70–80% confluence, subculture was done to prevent cell death. For this purpose, the culture medium was aspirated and the cells were washed with dulbecco’s phosphate buffered saline (DPBS), 2 mL of trypsin-EDTA were added and incubated for 5–8 min at 37 °C in a 5% CO2 atmosphere. After cell detaching, medium was added in order to block the trypsin action and cell suspension was centrifuged at 416 g for 5 min. The supernatant was discarded, the pellet suspended in culture medium, and cells were counted. For cell counting: 50 μL of cell suspension were added to 50 μL of Trypan Blue vital dye […], resuspended, placed in a Neubauer chamber (Hirschmann, Germany) and the viable cells were counted. For cell freezing, DMSO (5% v/v) was used as a cryopreservative to prevent the formation of crystals during the storage phase.
HaCaT cells were seeded onto 96-well tissue culture plates (Orange Scientific, Braine-l’Alleud, Belgium) at a 2 × 10^4 cells/well density and incubated at 37 °C in a 5% CO2 atmosphere for 24 h. […] In this last step, the absorbance was measured at 540 nm. […]

HaCaT cell = test system: HaCaT cell; set-up: method as in doi:10.1016/j.arabjc.2017.01.006, PMID 31167479; details: cited from earlier work
[4] = Solubility in ethanol 70%; assay type: physicochemical

| Structure (SMILES) | IC50 (DPPH reduction assay) [µM] | Collagenase % Inhibition (150 µM) (collagenase) | Hyaluronidase % Inhibition (150 μM) (hyaluronidase) | change of UV/Vis spectrum on sequential additions of FeCl3 [1] | change of UV/Vis spectrum on sequential additions of CuCl2 [2] | capacity to absorb UV radiation [3] | pH stability (Stability in pH buffers) | cytotoxicity to HaCaT cells (HaCaT cells; 12.5-200 µM, with and without UVA irradiation, NRU) | phototoxicity (HaCaT cells; up to 200 µM, HaCaT NRU assay) | decrease in HaCaT cell viability in the neutral red assay (HaCaT cell) [%] | cytotoxic effect (HaCaT cell; up to 50 µM, MTT, neutral red, Alamar Blue, Trypan Blue assays) | maximum reduction activity (DPPH reduction assay; DPPH, IC50 not determinable, probably due to solubility issues) | solubility [4] |
| --- | --- | --- | --- | --- | --- | --- | --- | --- | --- | --- | --- | --- | --- |
| O=C1O[C@H]([C@@H](O)CO)C(O)=C1O [Ascorbic Acid, Ascorbic acid, reference compound] | 40 ± 0.8 |  |  |  |  |  |  |  |  |  |  |  |  |
| O=c1c2ccccc2oc2ccc(O)c(O)c12 [Compound 1, 1,2-dihydroxy-9H-xanthen-9-one] | 28.4 ± 0.2 | 35.77 ± 1.82 ^a % | n.a. (Not active (0% inhibition)) | bathochromic shifts | bathochromic shifts | high absorbance in the UVB range | more stable in the pH range that is closest to the pH of the skin | not cytotoxic | nonphototoxic | 83 | did not promote a significant cytotoxic effect |  |  |
| Cc1cc(O)c(O)c2oc3ccccc3c(=O)c12 [Compound 2, 3,4-dihydroxy-1-methyl-9H-xanthen-9-one] | 31.2 ± 4.8 | 26.83 ± 1.45 ^b % | n.a. (Not active (0% inhibition)) | bathochromic shifts were observed | no effect was observed | high absorbance in the UVB range | a degradation of the compound for the range of pH tested overtime is observed |  |  |  |  |  |  |
| Cc1cc(O)c(O)c2oc3cc(O)ccc3c(=O)c12 [Compound 3, 3,4,6-trihydroxy-1-methyl-9H-xanthen-9-one] | 47.3 ± 0.4 |  | n.a. (Not active (0% inhibition)) | bathochromic shifts were observed | no effect was observed | high absorbance in the UVB range |  |  |  |  |  |  |  |
| COc1cc(O)c2c(=O)c3ccccc3oc2c1O [Compound 4, 1,4-dihydroxy-3-methoxy-9H-xanthen-9-one] |  |  |  |  |  |  |  |  |  |  |  | lower than 50% | low solubility |
